# Assays:
# [1] = system: Mus musculus; assay: Inhibition of plasma triacylglycerol excursion in mouse at 30 mg/kg relative to control; format: functional
# [2] = system: Mus musculus; assay: Inhibition of plasma triacylglycerol excursion in mouse at 10 mg/kg relative to control; format: functional
# [3] = system: Mus musculus; assay: Inhibition of corn oil-induced plasma triacylglycerol excursion in C57BL/6J mouse at 30 mg/kg administered via oral gavage 30 mins prior to corn oil challenge measured after 6 hrs by oral lipid tolerance test relative to control; format: functional
# [4] = Oral bioavailability in rat; format: ADME, organism-based; settings: in vivo
# [5] = Oral bioavailability in mouse; format: ADME, organism-based; settings: in vivo
# [6] = organism: Homo sapiens; assay: Selectivity ratio of IC50 for human MGAT3 to IC50 for human MGAT2
# [7] = biological target: T1, Diacylglycerol O-acyltransferase 2 (Homo sapiens, UniProt Q96PD7); assay: Inhibition of recombinant human DGAT2
# T1 sequence (Q96PD7 whole entry): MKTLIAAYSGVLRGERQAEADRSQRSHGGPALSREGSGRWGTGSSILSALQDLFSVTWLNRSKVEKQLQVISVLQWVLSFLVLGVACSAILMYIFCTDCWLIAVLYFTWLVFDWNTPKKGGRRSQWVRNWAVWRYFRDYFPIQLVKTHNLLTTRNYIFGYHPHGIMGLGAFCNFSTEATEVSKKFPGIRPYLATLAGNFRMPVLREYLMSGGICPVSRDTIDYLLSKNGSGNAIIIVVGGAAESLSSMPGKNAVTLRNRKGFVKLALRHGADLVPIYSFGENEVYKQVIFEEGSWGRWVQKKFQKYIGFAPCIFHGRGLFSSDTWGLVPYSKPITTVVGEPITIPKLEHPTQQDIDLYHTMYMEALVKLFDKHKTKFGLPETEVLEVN
# [8] = system: Mus musculus; assay: Decrease in insulin level in high sucrose, very low fat diet fed mouse model of fatty liver at 30 mg/kg relative to control; format: functional; set-up: scale not given: the % may be the effect or the level left
# [9] = system: Mus musculus; assay: Decrease in insulin level in high sucrose, very low fat diet fed mouse model of fatty liver at 100 mg/kg relative to control; format: functional; set-up: scale not given: the % may be the effect or the level left
# [10] = system: Mus musculus; assay: Inhibition of corn oil-induced plasma chylomicron triacylglycerol excursion in C57BL/6J mouse at 30 mg/kg, ip treated 16 hrs prior to liquid meal challenge measured up to 4 hrs by oral meal tolerance test relative to control; format: functional
# [11] = system: Mus musculus; assay: Anorectic effect in fasting high fat diet fed C57BL/6J mouse assessed as reduction in food intake at 30 mg/kg, po for 37 days followed by high fat diet feeding for 2 hrs relative to control; format: functional; set-up: scale not given: the % may be the effect or the level left
# [12] = Ratio of plasma concentration in corn oil-treated C57BL/6J mouse at 30 mg/kg, ip to IC50 for mouse MGAT2; format: ADME, organism-based; settings: in vivo
smiles,measurement,setting,value
CC(C)(C)C1CCN(Cc2ccc([C@H](NS(C)(=O)=O)C(F)(F)F)cc2)CC1,inhibition in vivo at 30 mg/kg,[1],100%
same,inhibition in vivo at 10 mg/kg,[2],69%
O=C(CNCCCCCOc1ccc(C(F)(F)F)cc1)N1CCc2nc(SC3CCC3)n(-c3ccccc3)c(=O)c2C1,inhibition in vivo at 30 mg/kg,[3],42%
CCC1(C)NC(=O)c2cc(S(=O)(=O)Nc3ccc(F)cc3F)cc(Cl)c2NC1=O (stereo not drawn),bioavailability,[4],74%
same,bioavailability,[5],69%
O=C(CCNCC1COc2ccccc2O1)N1CCc2nc(SC3CCC3)n(-c3ccccc3)c(=O)c2C1 (stereo not drawn),inhibition in vivo at 30 mg/kg,[3],42%
CC(C)(C)c1cc(C(C)(C)C)nc(N2CCn3c(nnc3-c3ccc(OC(F)(F)F)cc3)C2)n1,Ratio IC50,[6],300
same,IC50,[7],> 30 µM
same,Activity,[8],57%
same,Activity,[9],51%
Cn1nc(C(F)(F)F)cc1-c1cnc(N2CCc3cc(S(=O)(=O)Nc4c(F)cc(Cl)cc4F)cc(N4CCCC4=O)c32)nc1 [TP-020],inhibition in vivo at 30 mg/kg,[10],58%
same,Activity,[11],59%
same,Ratio,[12],1000
